Patent US6399745B1, “Use of leptin antagonists for treating insulin resistance in type II diabetes” (Aventis Pharma Deutschland GmbH, priority 1996, dated 2002)

Test system: isolated rat adipocytes
Assay: Glucose transport (2-deoxyglucose uptake) in isolated rat adipocytes after primary culture with leptin, basal and insulin-stimulated
Format: cell-based
Settings: for Glucose Transport, stimulation factor for insulin (stimulated/basal): Insulin concentration: 5 nM
Experimental: Adipocytes were prepared from the epididymal fat tissue of male Wistar rats (140-160 g, Hoechst AG breeding station, Kastengrund) by means of digesting with collagenase (Rodbell, 1964, J. Biol. Chem. 239, 375-380), washed twice with KRH (25 mM Hepes free acid, 25 mM Hepes sodium salt, 80 mM NaCl, 1 mM MgSO4, 2 mM CaCl2, 6 mM KCl, 1 mM sodium pyruvate, 0.5% BSA) and once with DMEM (Dulbecco's minimal essential medium), supplemented with 5.5 mM glucose, 20 mM Hepes (pH 7.4), 2% fetal calf serum, 1% BSA, 50 U of penicillin/ml, […], by means of flotation (800×g, 1 min, in small plastic tubes), and finally diluted to a volume of 20 ml of DMEM/g wet weight of the fat tissue (cell titer: approximately 2.5×10^5 cells/ml).
The adipocytes were incubated, at 37° C. for 15-18 h under an atmosphere of 5% CO2 and with gentle shaking, in supplemented (see above) DMEM in the presence of 100 nM phenylisopropyladenosine (4 ml of DMEM to 1 ml of cells, cell titer approximately 5×10^4 cell/ml, in 50 ml sterile polypropylene: tubes) and in the presence or absence of leptin. The adipocytes were subsequently washed three times with cold KRH and adjusted to a cell titer of approximately 3×10^5 cells/ml by adding 0.7 ml of glucose-free KRH to the cell layer which remained after the complete removal of the last washing solution. In order to determine the capacity of the adipocytes to be stimulated by insulin, and their sensitivity to insulin, following the primary culture, the washed adipocytes were incubated at 37° C. for 20 min in the absence or presence of human insulin (0.02-50 nM final concentration), and glucose transport or lipogenesis was then measured.
Glucose transport was measured as the specific uptake of the non-metabolizable glucose analog 2-deoxyglucose (Muller and Wied, 1993, Diabetes 42, 1852-1867). 50 μl of the adipocyte suspension in KRH, which suspension had or had not been preincubated with insulin (see above), were incubated, at 25° C. for 5 min, with 50 μl of KRH which was supplemented with 2-deoxy-D-[2,6-^3H]glucose (0.5 μCi, 0.2 mM). The incubation mixtures were transferred to thin soft-plastic centrifuge tubes, each of which already contained 200 μl of dinonyl phthalate oil, and immediately centrifuged (2,000×g, 30 sec). Using special shears, the tubes were severed within the oil layer (in the vicinity of the upper edge) and the upper halves of the tubes, together with the cell layers which had in each case been floated onto the oil layer, were transferred to scintillation vials. After 10 ml of scintillation fluid (water-based) had been added, the radioactivity associated with the cells was measured. In order to correct for 2-deoxyglucose which had become enclosed in the cell interstices, or had diffused into the cells, in a non-specific manner, the radioactivity of cells which had been preincubated with cytochalasin B (20 μM) was subtracted from the total cell-associated radioactivity of each individual incubation mixture (Gliemann et al., 1972, Biochim. Biophys. Acta 286, 1-9).
Isolated rat adipocytes were incubated for 15 h in primary culture in the presence or absence of increasing concentrations of leptin. […] The stimulation factor for insulin was calculated as the ratio between insulin-stimulated and basal activities. Each value represents the mean from two independent adipocyte cultures with activity being determined two or three times in each case.
The cells were then washed and tested for the stimulation of glucose transport by differing concentrations of insulin. Glucose transport activity is given as a “dpm value” of the 2deoxy-[^3H]glucose which is specifically associated with the cells. Each value represents the mean from two independent adipocyte cultures with the activity being determined four times in each case.

Substance: Leptin
- leptin concentration at which effects can already be detected in vitro (insulin dose/effect curves at different leptin concentrations): 0.5 to 1 nM
- glucose transport, uptake of 3H-labeled 2-deoxyglucose (leptin 0.05 nM 16.5 h, insulin 0.02 nM): 735 dpm
- glucose transport, uptake of 3H-labeled 2-deoxyglucose (leptin 0.05 nM 16.5 h, insulin 0.05 nM): 1025 dpm
- glucose transport, uptake of 3H-labeled 2-deoxyglucose (leptin 0.05 nM 16.5 h, insulin 0.1 nM): 1674 dpm
- glucose transport, uptake of 3H-labeled 2-deoxyglucose (leptin 0.05 nM 16.5 h, insulin 0.2 nM): 3320 dpm
- glucose transport, uptake of 3H-labeled 2-deoxyglucose (leptin 0.05 nM 16.5 h, insulin 0.5 nM): 5138 dpm
- glucose transport, uptake of 3H-labeled 2-deoxyglucose (leptin 0.05 nM 16.5 h, insulin 1 nM): 6834 dpm
- glucose transport, uptake of 3H-labeled 2-deoxyglucose (leptin 0.05 nM 16.5 h, insulin 2 nM): 7942 dpm
- glucose transport, uptake of 3H-labeled 2-deoxyglucose (leptin 0.05 nM 16.5 h, insulin 5 nM): 8794 dpm
- glucose transport, uptake of 3H-labeled 2-deoxyglucose (leptin 0.05 nM 16.5 h, insulin 10 nM): 9134 dpm
- glucose transport, uptake of 3H-labeled 2-deoxyglucose (leptin 0.05 nM 16.5 h, insulin 50 nM): 9189 dpm
- glucose transport, uptake of 3H-labeled 2-deoxyglucose (leptin 0.05 nM 16.5 h, no insulin (basal)): 654 dpm
- Glucose Transport, stimulation factor for insulin (stimulated/basal) (leptin 0.3 nM 15 h): 13.4
- Glucose Transport, stimulation factor for insulin (stimulated/basal) (leptin 1 nM 15 h): 11.75
- glucose transport, uptake of 3H-labeled 2-deoxyglucose (leptin 1 nM 16.5 h, insulin 0.02 nM): 678 dpm
- glucose transport, uptake of 3H-labeled 2-deoxyglucose (leptin 1 nM 16.5 h, insulin 0.05 nM): 824 dpm
- glucose transport, uptake of 3H-labeled 2-deoxyglucose (leptin 1 nM 16.5 h, insulin 0.1 nM): 1189 dpm
- glucose transport, uptake of 3H-labeled 2-deoxyglucose (leptin 1 nM 16.5 h, insulin 0.2 nM): 1587 dpm
- glucose transport, uptake of 3H-labeled 2-deoxyglucose (leptin 1 nM 16.5 h, insulin 0.5 nM): 2180 dpm
- glucose transport, uptake of 3H-labeled 2-deoxyglucose (leptin 1 nM 16.5 h, insulin 1 nM): 3904 dpm
- glucose transport, uptake of 3H-labeled 2-deoxyglucose (leptin 1 nM 16.5 h, insulin 2 nM): 5510 dpm
- glucose transport, uptake of 3H-labeled 2-deoxyglucose (leptin 1 nM 16.5 h, insulin 5 nM): 6985 dpm
- glucose transport, uptake of 3H-labeled 2-deoxyglucose (leptin 1 nM 16.5 h, insulin 10 nM): 8241 dpm
- glucose transport, uptake of 3H-labeled 2-deoxyglucose (leptin 1 nM 16.5 h, insulin 50 nM): 8932 dpm
- glucose transport, uptake of 3H-labeled 2-deoxyglucose (leptin 1 nM 16.5 h, no insulin (basal)): 634 dpm
- glucose transport, uptake of 3H-labeled 2-deoxyglucose (leptin 2 nM 16.5 h, insulin 0.02 nM): 704 dpm
- glucose transport, uptake of 3H-labeled 2-deoxyglucose (leptin 2 nM 16.5 h, insulin 0.05 nM): 755 dpm
- glucose transport, uptake of 3H-labeled 2-deoxyglucose (leptin 2 nM 16.5 h, insulin 0.1 nM): 860 dpm
- glucose transport, uptake of 3H-labeled 2-deoxyglucose (leptin 2 nM 16.5 h, insulin 0.2 nM): 1006 dpm
- glucose transport, uptake of 3H-labeled 2-deoxyglucose (leptin 2 nM 16.5 h, insulin 0.5 nM): 1377 dpm
- glucose transport, uptake of 3H-labeled 2-deoxyglucose (leptin 2 nM 16.5 h, insulin 1 nM): 1916 dpm
- glucose transport, uptake of 3H-labeled 2-deoxyglucose (leptin 2 nM 16.5 h, insulin 2 nM): 2680 dpm
- glucose transport, uptake of 3H-labeled 2-deoxyglucose (leptin 2 nM 16.5 h, insulin 5 nM): 4323 dpm
- glucose transport, uptake of 3H-labeled 2-deoxyglucose (leptin 2 nM 16.5 h, insulin 10 nM): 6107 dpm
- glucose transport, uptake of 3H-labeled 2-deoxyglucose (leptin 2 nM 16.5 h, insulin 50 nM): 7032 dpm
- glucose transport, uptake of 3H-labeled 2-deoxyglucose (leptin 2 nM 16.5 h, no insulin (basal)): 688 dpm
- Glucose Transport, stimulation factor for insulin (stimulated/basal) (leptin 3 nM 15 h): 7.4
- glucose transport, uptake of 3H-labeled 2-deoxyglucose (leptin 5 nM 16.5 h, insulin 0.02 nM): 734 dpm
- glucose transport, uptake of 3H-labeled 2-deoxyglucose (leptin 5 nM 16.5 h, insulin 0.05 nM): 798 dpm
- glucose transport, uptake of 3H-labeled 2-deoxyglucose (leptin 5 nM 16.5 h, insulin 0.1 nM): 883 dpm
- glucose transport, uptake of 3H-labeled 2-deoxyglucose (leptin 5 nM 16.5 h, insulin 0.2 nM): 923 dpm
- glucose transport, uptake of 3H-labeled 2-deoxyglucose (leptin 5 nM 16.5 h, insulin 0.5 nM): 1167 dpm
- glucose transport, uptake of 3H-labeled 2-deoxyglucose (leptin 5 nM 16.5 h, insulin 1 nM): 1583 dpm
